These results are taken from patent US7572438B2, “Mutant having uracil phosphoribosyl transferase activity” (Transgene S.A., priority 1998, dated 2009).

Molecules are shown by their SMILES.

The subject of one data set is SK-BR-3. Put plainly: LD50 of 5-FC and 5-FU on adenovirus-infected SK-BR-3 cells (MOI 5). The following applies: SK-BR-3, mock-infected, 6 days. Format: cell-based, human. Here is the method:
(§1) The LD50 values for 5-FC and 5-FU are determined vis-a-vis the three human tumor cell lines infected with the different viruses (Ad null, Ad.CMV-FCY1, Ad.CMV-FUR1A1Δ105 and Ad.CMV-FCU1) or coinfected with the adenoviruses expressing the FCY1 and FUR1Δ105 genes. The cells are infected at an MOI of 5 and then cultured in the presence of different concentrations of 5-FC and 5-FU. After 6 days of culture, the viability of the cells is determined using trypan blue. The LD50 values listed in Table 6 are the means of four counts.

Another data set concerns SW480. The experiment in a line: LD50 of 5-FC and 5-FU on adenovirus-infected SW480 cells (MOI 5). Format: cell-based, human. The following applies: 6 days. Here is the method: as §1
Another data set deals with PANC-1. The experiment in a line: LD50 of 5-FC and 5-FU on adenovirus-infected PANC-1 cells (MOI 5). As to conditions: PANC-1, mock-infected, 6 days. Format: cell-based, human. As to the method:
as §1

Data set [1] concerns B16(F0) cells. The experiment in a line: Bystander effect: mixtures of untransfected and pCI-neoFCU1-transfected B16(F0) clones with 5-FC. Format: cell-based, mouse. As to conditions: B16/B16 pCI-neoFCU1 100%/0%, 4 days. As to the method:
These clone mixtures were then tested in the presence of different concentrations of 5-FC. Cell mortality (using trypan blue) is assessed after culturing for 4 days in the presence of 5-FC.

The subject of data set [2] is B16(F0) cells. Put plainly: Sensitivity of transfected B16(F0) clones to 5-FC and 5-FU (LD50, trypan blue). Format: cell-based, mouse. As to conditions: 6 days with drug.
Description: The sensitivities of the different clones to 5-FC and 5-FU are also tested after incubating in the presence of the drugs for 6 days. The following values are the means of four counts (using trypan blue) of cell mortality.

Consider `O=c1[nH]cc(F)c(=O)[nH]1` [5-FU, 5-fluorouracil], for which the “LD50 (μM) 5-FU, Mock” value in the data set with SK-BR-3 was found to be 0.1 µM; with SW480, 0.5 µM; in the data set with PANC-1, 0.3 µM.

As to `Nc1nc(=O)[nH]cc1F` [5-FC, 5-fluorocytosine], the “LD50 (μM) + 5-FC” value with B16(F0) cells [1] was determined as 5000 µM. For the same molecule, the “LD50 (μM) 5-FC, Mock” value is 5000 µM in the data set with SK-BR-3, 5000 µM in the data set on SW480 and 10,000 μM in the data set on PANC-1. For the same molecule, the “LD50 for 5-FC, untransfected cells” value with B16(F0) cells [2] was 1000 µM.
